The results in this text go back to EP0252482A2, “7-Acyloxy-6-aminoacyloxypolyoxylabdanes, process for their preparation and their use as medicine” (HOECHST AKTIENGESELLSCHAFT, priority 1986, dated 1988).

Where a name gives a salt, the structure may show the parent alone.

The test system of one assay is Beagle-Hunde. As to the kind of experiment: Blood pressure, heart rate and left ventricular dp/dt in the anaesthetised beagle dog, i.v. administration. Format: in vivo. The following applies: Hund; for Blutdruckabfall: Natriumpentobarbital; for % Zunahme in dp/dt max: left ventricle. On the procedure:
2. Blutdruck am Hund: Methode: Beagle-Hunde beiderlei Geschlechts (Gewicht im Bereich 10 bis 15 kg) wurden mit Natriumpentobarbital narkotisiert (35 mg/kg, i.v.). Nach Einführung eines Endotrachealrohrs wurden sowohl die Oberschenkelarterie als auch die -vene zur Aufnahme des Blutdrucks und zur Verabreichung der Verbindung kanüliert. Der Druck im linken Ventrikel wurde mit einem Katheterspitzen-Messwandler (Millar-Kathether) gemessen und über einen Hugo Sachs-Differentiator differenziert. Sämtliche Methoden wurden auf einem Hellige-Schreibgerät mit sechs Kanälen aufgezeichnet. Die Elektrokardiogrammsignale wurden auf einem Becton-Dickinson-Gerät verfolgt.
Eine einprozentige Lösung der erfindungsgemäßen Verbindung in destilliertem Wasser wurde hergestellt und in verschiedenen Dosierungen intravenös verabreicht.

The next assay relates to Katzen. The assay can be described thus: Blood pressure in the anaesthetised cat (femoral artery), i.v. administration. Format: in vivo. The following applies: Katze, Dosis 3 mg/kg. On the procedure:
1. Blutdruck an der Katze: Katzen beiderlei Geschlechts von 3 bis 4 kg Gewicht wurden mit Äther narkotisiert und unter Chloralose-Narkose (70 mg/kg, i.v.) gehalten. Sowohl die Oberschenkelarterie als auch -vene wurden zur Aufzeichnung des Blutdrucks und zur Verabreichung von Medikamenten kanüliert. Der Blutdruck in der Oberschenkelarterie wurde über einen Messwandler Statham 23 Db auf einem physiologischen Nihon-Kohden-Registriergerät aufgezeichnet. Die zu prüfende Verbindung wurde in destilliertem Wasser gelöst und intravenös verabreicht, und der Blutdruckabfall und die Dauer der blutdrucksenkenden Wirkung wurden notiert.
Die mit diesem Modell für typische erfindungsgemäße Verbindungen erhaltenen Resultate sind in der nachfolgenden Tabelle angegeben: […]

As for `C=CC1(C)CC(=O)C2(O)C(C)(O1)C(OC(=O)CC)C(OC(=O)CN1CCCCC1)C1C(C)(C)CCC(O)C12C` (stereo not drawn) [C2H5, 1α,9α-Dihydroxy-8,13-epoxy-6ß-piperidino acetoxy-7ß-propionyloxy-labd-14-en-11-on hydrochlorid], the Dauer in the assay with Beagle-Hunde (Dosis 0.3 mg/kg) is 10 min; in the assay with Beagle-Hunde (Dosis 1.0 mg/kg) it was 60 min; with Katzen (duration of hypotensive effect) it was > 120 min. The Pulszunahme entry in the assay with Beagle-Hunde (Dosis 1.0 mg/kg) is recorded as “+19 Pulsschläge pro Min”. In addition, the Blutdruckabfall in the assay on Beagle-Hunde (Dosis 0.3 mg/kg) is 10 mm Hg; with Beagle-Hunde (Dosis 1.0 mg/kg), 46 mm Hg; in the assay on Katzen (Chloralose-Narkose), 30 mm Hg. Besides, the entries for the “% Zunahme in dp/dt max” value with Beagle-Hunde (Dosis 0.3 mg/kg) and in the assay with Beagle-Hunde (Dosis 1.0 mg/kg) were “+38%” and “+65%”, respectively.
